Data on eight compounds can be found in ChEMBL document CHEMBL1201862, “PubChem BioAssay data set” (2004).

What all share (assay): DTP human tumour cell line panel, 48 h
Assay [1] concerns RPMI-8226.
Assay [2] deals with HOP-92.
The subject of assay [3] is SK-OV-3.
The subject of assay [4] is SK-MEL-28.
Assay [5] concerns HOP-62.
The test system of assay [6] is PC-3.
Assay [7] deals with HCC 2998.
Assay [8] deals with DU-145.
In assay [9] the test system is OVCAR-4.
The subject of assay [10] is OVCAR-8.
Assay [11] relates to MCF7.
Assay [12] deals with MDA-N.
Assay [13] relates to KM12.
The test system of assay [14] is HT-29.
Assay [15] concerns NCI/ADR-RES.
For assay [16], the system named is A498.
Assay [17] concerns U-251.
Assay [18] relates to SK-MEL-2.
Assay [19] relates to OVCAR-3.
For assay [20], the system named is NCI-H460.

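Interpolation was linear, between the two tested concentrations surrounding the appropriate level; five concentrations were tested over 48 hours in 96-well plates. The concentration for 50% growth inhibition is given as GI50.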 Calls of active or inactive are those of the source. Rule as the data show it: active = GI50 up to about 1.1 µM and inactive = higher. A value given as a limit tells only on which side of the number the result lay.

In general, GI50 refers to the concentration giving 50% growth inhibition. Regarding `Fc1ccc(-c2sc(-c3ccsc3)cc2Cc2ccsc2)cc1`, the GI50 in assay [1], in [2], in assay [3], in assay [4], in [5] and in assay [6] was > 10 µM (inactive) each time. The GI50 in assay [7], in [8], in assay [9], in assay [10], in [11] and in assay [12] was > 10 µM (inactive) throughout. Besides, the GI50 in assay [13] and in [14] was > 10 µM (inactive) each time.

As for `C=CCNC1=C2C[C@@H](C)C[C@@H](OC)[C@H](OC(=O)CCCCN)[C@H](C)/C=C(\C)[C@@H](OC(N)=O)[C@H](OC)/C=C\C=C(/C)C(=O)NC(=CC1=O)C2=O`, the GI50 is > 100 µM (inactive) in assay [15]; 9.04 µM (inactive) in assay [1]; 12.9 µM (inactive) in assay [16]; 18.8 µM (inactive) in assay [2]; 6.31 µM (inactive) in assay [3]; 10.9 µM (inactive) in assay [17]. The GI50 was 3.72 µM (inactive) in [18]; 18.5 µM (inactive) in assay [4]; 3.22 µM (inactive) in assay [19]; 5.83 µM (inactive) in [5]; 11.6 µM (inactive) in assay [20]; 4.27 µM (inactive) in [7]. The GI50 is 6.47 µM (inactive) in [8]; 15.8 µM (inactive) in [9]; 19.4 µM (inactive) in assay [10]; 3.77 µM (inactive) in assay [11]; 8.55 µM (inactive) in assay [12]; 4.97 µM (inactive) in [13]. In addition, the GI50 in assay [14] was 4.27 µM (inactive).

Turning to `CCCCCCCCCCCCCCCCOCC(Cl)COP(=O)(O)OP(=O)(O)OCC1OC(n2cc(C)c(=O)[nH]c2=O)CC1O` (configuration not stated), the GI50 is 71.3 µM (inactive) in assay [15]; > 100 µM (inactive) in assay [1]; > 100 µM (inactive) in [16]; 29.5 µM (inactive) in assay [2]; > 100 µM (inactive) in assay [3]; > 100 µM (inactive) in [17]. The GI50 is > 100 µM (inactive) in assay [18]; 55.2 µM (inactive) in [4]; > 100 µM (inactive) in assay [19]; > 100 µM (inactive) in assay [5]; > 100 µM (inactive) in [20]; 25.1 µM (inactive) in assay [6]. For the same compound, the GI50 in assay [7] is > 100 µM (inactive); in [9] it was > 100 µM (inactive); in assay [10], 75.9 µM (inactive); in assay [11], > 100 µM (inactive); in assay [12], 52.8 µM (inactive); in assay [13] it was 95.7 µM (inactive). Moreover, the GI50 in [14] was > 100 µM (inactive).

On to `Cc1ccc(OC(=O)N2C/C(=C\c3ccccc3)C(=O)/C(=C/c3ccccc3)C2)cc1`, for which the GI50 was 0.403 µM (active) in assay [1]; > 66.5 µM (inactive) in assay [16]; > 100 µM (inactive) in [2]; 41.3 µM (inactive) in assay [3]; 9.25 µM (inactive) in [17]; 42.6 µM (inactive) in [18]. Further, the GI50 was 25.7 µM (inactive) in assay [4]; 25.6 µM (inactive) in [19]; 18.5 µM (inactive) in assay [5]; 53 µM (inactive) in [20]; 27.6 µM (inactive) in assay [6]; 10 µM (inactive) in [7]. Moreover, the GI50 in assay [8] was > 100 µM (inactive); in assay [9] it was 23.5 µM (inactive); in assay [10], 19.6 µM (inactive); in [11], 5.14 µM (inactive); in assay [12], 4.02 µM (inactive); in [13], 16.2 µM (inactive). Besides, the GI50 in [14] was 4.93 µM (inactive).

Take `Cc1cc(-c2cccc3ccccc23)c(C#N)c(=S)n1C1OC(CO)C(O)C(O)C1O` (configuration not stated): the GI50 in assay [15], in assay [16], in [3], in assay [18], in assay [19] and in assay [5] was > 100 µM (inactive) each time. Moreover, the GI50 was > 100 µM (inactive) in assay [20]; > 100 µM (inactive) in [6]; > 100 µM (inactive) in assay [7]; 60.3 µM (inactive) in assay [9]; > 100 µM (inactive) in assay [10]; > 100 µM (inactive) in assay [11]. For the same compound, the GI50 in [12], in assay [13] and in [14] was > 100 µM (inactive) each time.

For the compound `COC(=O)c1c2c(cc3c1CC1(Cc4cc5c(cc4C1)CCCC5)C3)CCCC2`, the GI50 in [15], in [1], in assay [16], in assay [2], in assay [3] and in assay [17] was > 100 µM (inactive) in each case. Moreover, the GI50 in [18], in [19], in [5], in assay [6], in assay [7] and in assay [9] was > 100 µM (inactive) throughout. The GI50 in [10], in [11], in [12], in assay [13] and in assay [14] was > 100 µM (inactive) each time.

For the compound `C=C1C(=O)OC2C3C(=C)[C@@H](OC(C)=O)CC3C(C)=CC(OC(=O)C(C)(OC(C)=O)C(C)OC(C)=O)[C@@H]12` (some centres not stated), the GI50 in assay [1] was 6.55 µM (inactive); in assay [3], 83.2 µM (inactive); in assay [17] it was 16.5 µM (inactive); in assay [18] it was 12.3 µM (inactive); in assay [4], 15.1 µM (inactive); in assay [19], 13.2 µM (inactive). In addition, the GI50 in assay [5] is 37.4 µM (inactive); in assay [20] it was 23.6 µM (inactive); in [6] it was 17.3 µM (inactive); in assay [7], 18.6 µM (inactive); in [8], 16.1 µM (inactive); in assay [9] it was 13.3 µM (inactive). Further, the GI50 in [10] is 30.1 µM (inactive); in assay [11] it was 11.5 µM (inactive); in assay [12], 14.9 µM (inactive); in assay [13] it was 16.8 µM (inactive); in [14] it was 14.4 µM (inactive).

Turning to `O=C(O)c1ccc(NC(NC(=O)C(C(F)(F)F)C(F)(F)F)(C(F)(F)F)C(F)(F)F)cc1`, the GI50 in assay [15], in assay [1], in assay [16], in [3], in assay [17] and in assay [18] was > 100 µM (inactive) each time. Besides, the GI50 in assay [4], in assay [6], in assay [7], in assay [10], in assay [12] and in [14] was > 100 µM (inactive) throughout.
